Read-outs that look alike come from different tables or passages of the source.
Biological target: LTC4S (Homo sapiens (Human), UniProt Q16873)
Experiment: Human whole blood HTRF assay (LTC4 release after calcium ionophore A23187)
Assay type: cell-based
Conditions: calcium ionophore A23187 stimulation, LTC4 by HTRF
Protocol: B. Human Whole Blood HTRF Assay
LTC4 synthase catalyzes the conversion of Leukotriene A4 (LTA4) to Leukotriene C4 (LTC4) in the presence of reduced glutathione (GSH) as a co-substrate. For testing the inhibition of LTC4S, compounds are prepared for either eight-point or sixteen-point dose response studies in 384-well Labcyte low dead volume (LDV) plates. For eight-point dose response studies, compounds are diluted 1:5 starting at 1 μM concentration in 90% DMSO. […] Compounds are studied in duplicates. Ten wells are filled with 90% DMSO which correspond to the stimulated and unstimulated control wells. […] The morning of the assay, whole blood is collected from three human donors. Donors must be non-smokers and must not have taken NSAIDs within the 48 hours prior to blood collection. The amount of blood collected per donor depends on the amount of compounds to be tested and the dose response format in which they are to be studied (about 8 mL of whole blood for either 22 compounds in 8-point dose response format or 11 compounds in 16-point dose response format). […] 50 μL of diluted blood are then dispensed into each assay plate well with pre-dispensed compounds and DMSO for the stimulated and unstimulated controls using a Thermo Scientific™ Multidrop™ Combi reagent dispenser, and incubated at 37° C. for 4 hours. Calcium ionophore A23187 is used to induce a rapid increase in intracellular levels of Ca^2+. The Ca^2+ functions as a universal second messenger in various immune cells, such as T cells, B cells and mast cells, and is used to induce degranulation and release of eicosanoids, including LTC4, by cells contained in the whole blood samples. […] All but the unstimulated control wells are subsequently stimulated by dispensing 1 μL of the 0.5 mg/mL calcium ionophore suspension using the Thermo Scientific™ Multidrop™ Combi reagent dispenser. Plates are incubated for 15 minutes at 37° C. Plates are then centrifuged at 300 g for 10 minutes at room temperature to pellet blood cells and stop the reaction. […] Plates are sealed and stored at −80° C.
In order to measure the amount of LTC4 released by cells in the human blood samples during calcium ionophore stimulation, supernatants are analyzed using the Cisbio LTC4 homogeneous time-resolved FRET (HTRF) kit (Cisbio #64LC4PEH). […] Ten serially diluted standard curve solutions are also dispensed in duplicate into each plate as instructed in the protocol. Blank controls and cryptate control wells are also prepared. Then, 5 μL of anti-LTC4-d2 working solution are dispensed into all the wells, but the cryptate control wells. Subsequently, 5 μL of anti-LTC4-Eu3+ cryptate working solution are dispensed into all the wells. Plates are then covered with a lid and incubated at room temperature for one hour with gentle orbital shaking (˜450 rpm). […] HTRF ratios are calculated for each well by dividing the 665 nm intensity by the 620 nm intensity, and multiplying the resulting ratio by 10,000. LTC4 standard curves are interpolated for each plate and used to convert the HTRF ratio readouts into the amount of LTC4 present in each well (in ng/mL). Parametric curve fitting is used to obtain inhibition curves and IC50 values.

[1] = human whole blood diluted 1:3, 4 h incubation, read-out: human whole blood HTRF IC50
[2] = human whole blood HTRF IC50, human whole blood diluted 1:3, 4 h incubation

| SMILES | IC50 [1] | IC50 [2] |
| --- | --- | --- |
| Nc1nc(N[C@@H]2CCOC2)cc(N2CCC3(CCCC(=O)N3c3ccc(F)c(F)c3)CC2)n1 [Example 112, (R)-9-(2-amino-6-((tetrahydrofuran-3-yl)amino)pyrimidin-4-yl)-1-(3,4-difluorophenyl)-1,9-diazaspiro[5.5]undecan-2-one] | 67 nM |  |
| O=C1CCCC2(CCN(c3nc(Cl)cc(O[C@@H]4CCOC4)n3)CC2)N1c1ccc(F)c(F)c1 [Example 72, (R)-9-(4-chloro-6-((tetrahydrofuran-3-yl)oxy)pyrimidin-2-yl)-1-(3,4-difluorophenyl)-1,9-diazaspiro[5.5]undecan-2-one] | 760 nM |  |
| NC1(C(F)(F)F)CCN(c2ccnc(N3CCC4(CCCC(=O)N4c4ccc(F)c(F)c4)CC3)n2)CC1 [Example 39, 9-(4-(4-amino-4-(trifluoromethyl)piperidin-1-yl)pyrimidin-2-yl)-1-(3,4-difluorophenyl)-1,9-diazaspiro[5.5]undecan-2-one] | 4 nM |  |
| CC(F)(F)c1cc(N2CCC3(CCCC(=O)N3c3ccc(F)c(F)c3)CC2)nc(N)n1 [Example 120, 9-(2-amino-6-(1,1-difluoroethyl)pyrimidin-4-yl)-1-(3,4-difluorophenyl)-1,9-diazaspiro[5.5]undecan-2-one] | 32 nM |  |
| O=C1CCCC2(CCN(c3cc(-n4cc(C(F)(F)F)cn4)nc(CO)n3)CC2)N1c1ccc(F)c(F)c1 (racemic) [Example 67, rac-1-(3,4-difluorophenyl)-9-(2-(1-hydroxymethyl)-6-(4-(trifluoromethyl)-1H-pyrazol-1-yl)pyrimidin-4-yl)1,9-diazaspiro[5.5]undecane-2-one] | 2 nM |  |
| Nc1nc(O[C@H]2CCOC[C@@H]2F)cc(N2CCC3(CCCC(=O)N3c3ccc(F)c(F)c3)CC2)n1 (racemic) [Example 99, rac-9-(2-amino-6-(((3S,4S)-3-fluorotetrahydro-2H-pyran-4-yl)oxy)pyrimidin-4-yl)-1-(3,4-difluorophenyl)-1,9-diazaspiro[5.5]undecan-2-one] | 4 nM |  |
| O=C1CCCC2(CCN(c3cc(-n4cccn4)nc(C(F)(F)F)n3)CC2)N1c1ccc(F)c(F)c1 [Example 51, 9-(6-(1H-pyrazol-1-yl)-2-(trifluoromethyl)pyrimidin-4-yl)-1-(3,4-difluorophenyl)-1,9-diazaspiro[5.5]undecan-2-one] | 70 nM |  |
| O=C1CCCC2(CCN(c3cc(N4CC5(CCC5)C4)nn(Cc4ccccc4)c3=O)CC2)N1c1ccc(F)c(F)c1 [Example 10, 9-(2-benzyl-3-oxo-6-(2-azaspiro[3.3]heptan-2-yl)-2,3-dihydropyridazin-4-yl)-1-(3,4-difluorophenyl)-1,9-diazaspiro[5.5]undecan-2-one] | 5 nM |  |
| O=C1CC(F)CC2(CCN(c3cc(OCC(F)(F)F)ncn3)CC2)N1c1ccc(F)c(F)c1 (stereo not shown) [Example 119, 1-(3,4-difluorophenyl)-4-fluoro-9-(6-(2,2,2-trifluoroethoxy)pyrimidin-4-yl)-1,9-diazaspiro[5.5]undecan-2-one] |  | 29 nM |
| Nc1nc(OCCO)cc(N2CCC3(CCCC(=O)N3c3ccc(F)c(F)c3)CC2)n1 [Example 94, 9-(2-amino-6-(2-hydroxyethoxy)pyrimidin-4-yl)-1-(3,4-difluorophenyl)-1,9-diazaspiro[5.5]undecan-2-one] | 830 nM |  |
| O=C1CCCC2(CCN(c3cc(=O)n(Cc4ccccc4)nc3OC3CCOCC3)CC2)N1c1ccc(F)c(F)c1 [Example 15b, 9-(1-benzyl-6-oxo-3-((tetrahydro-2H-pyran-4-yl)oxy)-1,6-dihydropyridazin-4-yl)-1-(3,4-difluorophenyl)-1,9-diazaspiro[5.5]undecan-2-one] |  | 180 nM |
| Cn1cc(C2=CCC(F)(F)CC2)nc(N2CCC3(CCCC(=O)N3c3ccc(F)c(F)c3)CC2)c1=O [Example 19, 9-(6-(4,4-difluorocyclohex-1-en-1-yl)-4-methyl-3-oxo-3,4-dihydropyrazin-2-yl)-1-(3,4-difluorophenyl)-1,9-diazaspiro[5.5]undecane-2-one] | 3 nM |  |
| [2H]C([2H])(Oc1cc(N2CCC3(CCCC(=O)N3c3ccc(F)c(F)c3)CC2)nc(N)n1)C(F)(F)F [Example 92, 9-(2-amino-6-(2,2,2-trifluoroethoxy-1,1-d2)pyrimidin-4-yl)-1-(3,4-difluorophenyl)-1,9-diazaspiro[5.5]undecan-2-one] | 5 nM |  |
| O=C1CCCC2(CCN(c3cc(O[C@@H]4CCOC[C@@H]4F)nc(CO)n3)CC2)N1c1ccc(F)c(F)c1 (racemic) [Example 107, rac-1-(3,4-difluorophenyl)-9-(6-(((3S,4R)-3-fluorotetrahydro-2H-pyran-4-yl)oxy)-2-(hydroxymethyl)pyrimidin-4-yl)-1,9-diazaspiro[5.5]undecan-2-one] | 6 nM |  |
| O=C1CCCC2(CCN(c3cc(C(F)(F)C(F)(F)F)nc(CO)n3)CC2)N1c1ccc(F)c(F)c1 [Example 79, 1-(3,4-difluorophenyl)-9-(2-(hydroxymethyl)-6-(perfluoroethyl)pyrimidin-4-yl)-1,9-diazaspiro[5.5]undecane-2-one] | 56 nM |  |
| O=C1CCCC2(CCN(c3cc(-n4cncn4)ncn3)CC2)N1c1ccc(F)c(F)c1 [Example 54, 9-(6-(1H-1,2,4-triazol-1-yl)pyrimidin-4-yl)-1-(3,4-difluorophenyl)-1,9-diazaspiro[5.5]undecan-2-one] | 300 nM |  |
| CN(C)c1nc(N2CCC3(CCCC(=O)N3c3ccc(F)c(F)c3)CC2)cc(-n2cccn2)n1 [Example 53, 1-(3,4-difluorophenyl)-9-(2-(dimethylamino)-6-(1H-pyrazol-1-yl)pyrimidin-4-yl)-1,9-diazaspiro[5.5]undecan-2-one] | 1140 nM |  |
| Nc1nc(OC2COCC2(F)F)cc(N2CCC3(CCCC(=O)N3c3ccc(F)c(F)c3)CC2)n1 (racemic) [Example 98, rac-9-(2-amino-6-((4,4-difluorotetrahydrofuran-3-yl)oxy)pyrimidin-4-yl)-1-(3,4-difluorophenyl)-1,9-diazaspiro[5.5]undecan-2-one] | 3 nM |  |
| CC1(O)CN(c2nc(N)cc(N3CCC4(CCCC(=O)N4c4ccc(F)c(F)c4)CC3)n2)C1 [Example 43, 9-(6-amino-2-(3-hydroxy-3-methylazetidin-1-yl)pyrimidin-4-yl)-1-(3,4-difluorophenyl)-1,9-diazaspiro[5.5]undecan-2-one] | 400 nM |  |
| C[C@@H](Oc1cc(N2CCC3(CCCC(=O)N3c3ccc(F)c(F)c3)CC2)nc(CO)n1)C(F)(F)F (single isomer, unassigned) [Example 110b, (R)-1-(3,4-difluorophenyl)-9-(2-(hydroxymethyl)-6-((1,1,1-trifluoropropan-2-yl)oxy)pyrimidin-4-yl)-1,9-diazaspiro[5.5]undecan-2-one or (S)-1-(3,4-difluorophenyl)-9-(2-(hydroxymethyl)-6-((1,1,1-trifluoropropan-2-yl)oxy)pyrimidin-4-yl)-1,9-diazaspiro[5.5]undecan-2-one] | 5 nM |  |
| Nc1nc(OCC(F)(F)F)cc(N2CCC3(CCCC(=O)N3c3ccc(F)c(F)c3)CC2)n1 [Example 91, 9-(2-amino-6-(2,2,2-trifluoroethoxy)pyrimidin-4-yl)-1-(3,4-difluorophenyl)-1,9-diazaspiro[5.5]undecan-2-one] | 3 nM |  |
| Nc1cc(N2CCC3(CCCC(=O)N3c3ccc(F)c(F)c3)CC2)nc(-c2ccccn2)n1 [Example 63, 9-(6-amino-2-(pyridin-2-yl)pyrimidin-4-yl)-1-(3,4-difluorophenyl)-1,9-diazaspiro[5.5]undecan-2-one] | 430 nM |  |
